Tested on: rgRSV224
Test: microbe, parasite or virus in culture
Assay type: cell-based, RSV
Settings: for normalized data (GFP response): average across 12 replicates
Description: To evaluate their combined antiviral effect against RSV, in vitro combination studies were performed with Compound A, i.e. 3-({5-chloro-1-[3-(methylsulfonyl)propyl]-1H-indol-2-yl}methyl)-1-(2,2,2-trifluoroethyl)-1,3-dihydro-2H-imidazo[4,5-c]pyridin-2-one, and Compound B, i.e. (1S,2S)-2-[4-[7-cyclopropyl-5-[(1R)-1-methyl-3,4-dihydro-1H-isoquinoline-2-carbonyl]pyrazolo[1,5-a]pyrimidin-2-yl]-3-fluoro-phenyl]cyclopropanecarboxylic acid. In short, 9 concentrations of Compound A were combined with 6 or 7 concentrations of Compound B. HeLa cells were infected with rgRSV224, an engineered RSV strain that encodes for eGFP (Hallak L K, Spillmann D, Collins P L, Peeples M E. Glycosaminoglycan sulfation requirements for respiratory syncytial virus infection; Journal of Virology (2000), 74(22), 10508-13), in the presence of various concentrations of compound A and compound B individually or in combination.
Compound stock solutions were 5 mM in 100% DMSO. First, the compounds were serially diluted in 3-fold dilution series in DMSO. The concentration series were diluted 100-fold in cell culture medium to achieve a combination matrix. 10 μL of these compound solutions were transferred to black 384-well clear-bottom tissue-culture treated plates. Next, 10 μL of a […] HeLa cell suspension was added to achieve 3000 cells per well. Finally, 10 μL of diluted virus stock was added to achieve an MOI of 1. The final DMSO concentration of all wells was 0.5% DMSO. Each combination of compound concentrations was tested in 4 replicates on 3 separate plates, resulting in a total of 12 replicates. The plates were incubated for 3 days at 37° C. in a humidified atmosphere at 5% CO2. The GFP signal was measured with PerkinElmer EnVision apparatus using a 405 nm filter.
The method of Harbron (Statistics in Medicine, 2010, DOI:10.1002/sim3916) was used to assess synergy. Using the Loewe definition, two compounds are characterized as being additive, synergistic or antagonistic by:
where d1 and d2 represent the doses of the two compounds that in combination produce an effect y, and Dy,1 and Dy,2 represent the doses of the two compounds that produce the same effect, y, when administered as a monotherapy. A 3PL model (3-parameter log-logistic model) was used for the monotherapy dose-response data, where the baseline response was fixed at one.
Following Harbron's approach, the following models were fitted to the data: • “Additive”: assuming no interaction between the two compounds • “Uniform”: assuming a constant interaction index τ across all dose combinations • “Linear A”: assuming the interaction index linearly depends on the log 10 dose of compound A: τ=τ1+τ2 log 10(dA) • “Separate A”: assuming the interaction index τ takes a separate value for each dose of compound A
The latter two models were also considered for compound B: • “Linear B”: assuming the interaction index linearly τ depends on the log 10 dose of compound B: τ=τ1+τ2 log 10(dB) • “Separate B”: assuming the interaction index τ takes a separate value for each dose of compound B

Row | Compound | normalized data (GFP response) (A = 0.19, B = 0) | normalized data (GFP response) (A = 0.57, B = 0) | normalized data (GFP response) (A = 1.7, B = 0) | normalized data (GFP response) (A = 5.1, B = 0) | normalized data (GFP response) (A = 15, B = 0) | normalized data (GFP response) (A = 46, B = 0) | normalized data (GFP response) (A = 139, B = 0) | normalized data (GFP response) (A = 417, B = 0) | normalized data (GFP response) (A = 1250, B = 0) | EC50 (human respiratory syncytial virus, HeLa, read-out: EC50 (dose at τ EC50)) [nM] | normalized data (GFP response) (A = 0, B = 4.6) | normalized data (GFP response) (A = 0, B = 14) | normalized data (GFP response) (A = 0, B = 42) | normalized data (GFP response) (A = 0, B = 125) | normalized data (GFP response) (A = 0, B = 375) | normalized data (GFP response) (A = 0, B = 1125)
1 | CS(=O)(=O)CCCn1c(Cn2c(=O)n(CC(F)(F)F)c3ccncc32)cc2cc(Cl)ccc21 [Compound A, 3-({5-chloro-1-[3-(methylsulfonyl)propyl]-1H-indol-2-yl}methyl)-1-(2,2,2-trifluoroethyl)-1,3-dihydro-2H-imidazo[4,5-c]pyridin-2-one] | 1.07 | 1.05 | 0.99 | 0.74 | 0.48 | 0.29 | 0.18 | 0.08 | 0.06 | 13.1 | – | – | – | – | – | –
2 | C[C@@H]1c2ccccc2CCN1C(=O)c1cc(C2CC2)n2nc(-c3ccc([C@H]4C[C@@H]4C(=O)O)cc3F)cc2n1 [Compound B, (1S,2S)-2-[4-[7-cyclopropyl-5-[(1R)-1-methyl-3,4-dihydro-1H-isoquinoline-2-carbonyl]pyrazolo[1,5-a]pyrimidin-2-yl]-3-fluoro-phenyl]cyclopropanecarboxylic acid] | – | – | – | – | – | – | – | – | – | – | 1.13 | 1.04 | 0.37 | 0.07 | 0.00 | 0.00

From US11369612B2, “Treatment of RSV with combination product” (Janssen Sciences Ireland Unlimited Company, priority 2017, dated 2022)
